Assay results as given in patent US8841325B2, “Immunomodulatory compounds for the restoration of vitamin D sensitivity in vitamin D resistant tumor cells” (Celgene Corporation, priority 2009, dated 2014).
Entries after “also recorded” stand apart in the source; their conditions may differ.

How the values were obtained:
Type in all cases: cell-based
[1] = system: MDA-MB-231 cells; test: PARP cleavage assay (Western blot)
Description: Cells were plated in 75 cm^2 flasks and cultured for 6 days with 1 μl/mL DMSO (control) or 1 μM 1-oxo-2-(2,6-dioxopiperidin-3-yl)-4-aminoisoindoline and 100 nM 1,25 D3, each alone or in combination. For each time point, medium was removed and cells were washed with ice-cold PBS. Cells were then lysed with RIPA buffer (1% NP40, 0.5% sodium deoxycholate, 0.1% SDS, PBS) and the lysate was centrifuged at 13000 rpm for 20 minutes at 4° C. The supernatant was collected and an aliquot taken for measuring protein concentration. The protein estimation was determined for each lysate using the Bio-Rad DC Protein Assay Kit according to the manufacturer's instructions. The protein extract was mixed with SDS (1/4), sonicated 10 seconds, and protein concentration was determined by Bradford assay.
SDS-polyacrylamide gel electrophoresis (SDS-PAGE) was run on a Mini Trans-Blot Module apparatus (Bio-Rad). The percentage of polyacrylamide/bis-acrylamide in the resolving gel in this experiment was 12% v/v. The following reagents were used for stacking gel: 0.67 mL 30% acrylamide/bis-acrylamide; 2.7 mL H2O; 0.5 mL 1M trizma; 0.01 mL 10% ammonium persulfate; and 0.04 mL SDS. The following reagents were used for resolving gel: 3.3 mL 30% acrylamide/bis-acrylamide; 4 mL H2O; 2.5 mL 1M trizma; 0.1 mL 10% ammonium persulfate; and 0.1 mL 10% SDS.
Once the resolving gel was prepared, polymerization was initiated by addition of 10 μl N′,N′,N′,N′-teramethylethylene-diamine (TEMED). Lysates were boiled for 5 minutes and chilled on ice then loaded into the stacking gel, with volumes adjusted so that equal amounts of protein were loaded. Rainbow colored markers (Sigma Aldrich) were also added in one well to monitor the electrophoretic solution. Electrophoresis was performed at 40 mA constant current for 1 to 2 hours in running buffer (10×25 mM trizma, 192 mM glycine, 0.1% SDS).
For western blotting, the proteins were transferred from the gel onto Hybond C-Super nitrocellulose membrane (Amersham International, U.K.) in a Mini Trans-Blot apparatus (Bio-Rad) according to the manufacturer's instructions. Transfer was performed at 100 V for 1.5 to 2 hours in transfer buffer (25 mM Tris base, 192 mM glycine, 20% methanol, pH 8.2). The nitrocellulose was blocked after 1 hour with milk solution (PBS 1×, 1% Tween 20, 1% Triton X100, 5% fat-free milk). The membrane was then stained for 1 hour with the primary antibodies Total-PARP and Cleaved-PARP in the milk solution. The membrane was washed with milk solution and stained with secondary antibody (anti-rabbit from Sigma Aldrich) for 1 hour. […] The membrane was then wrapper in cling-film and placed in a cassette and, in the dark, pieces of autography film (GRI) were placed over it and left for the desired time before being put through a developer.
Cells were lysed in RIPA buffer containing 1% NP40, 0.5% sodium deoxycholate, 0.1% SDS, PBS. Equal amounts of protein (20 μg per lane) were subjected to SDS-PAGE and transferred to nitrocellulose membranes. Membranes were blocked with 5% milk in 0.05% Tween-20/TBS and then incubated with the first antibody in 0.5% milk overnight. Membranes were then incubated with the secondary anti-mouse or anti-rabbit horseradish peroxidase conjugated antibody. Bands were visualised using the enhanced chemiluminescence Western blotting detection system (ECL, Amersham, N.J., USA). Densitometric analysis was performed using Adobe Photoshop CS2. Anti-cleaved PARP and anti-total PARP antibodies (New England biolab, Cell Signalling), were used at a dilution of 1/1000 and anti-rabbit (AbCam, UK), at a dilution of 1/5000.
Cells were also treated with 0.1% DMSO as a control. […] Cells treated with 0.1% DMSO were used as a control (day 0). Cell lysates were probed for cleaved-PARP(C-PARP) and total PARP (T-PARP). Data shown are representative of three identical experiments.

[2] = system: MCF-12A cells; test: Cell viability by neutral red assay, MCF-12A
Description: Cells were seeded in 24 wells plates at a density of 10^4 cells per well and allowed to adhere for 24 hours. […] The drug was renewed every 2 days. Cell viability was then determined by neutral red assay, measuring absorbance at 550 nm.
After 6 days treatment, cells were seeded into 24 well plates at a density of 1×10^4 cells/wells. After 24 h, cells were treated with reagents or vehicle for up to six days. At the end of the incubation period, medium was removed and cells were incubated with neutral red solution (40 μg/ml in phenol red and serum free DMEM) for 2 h at 37° C. After removal of the neutral red solution, wells were rinsed once with 1 ml 4% formal saline containing 0.5% CaCl2. Plates were inverted on paper towel to drain and 200 μl of elution fluid (1% acetic acid in 50% ethanol) was added. Following incubation at room temperature for 30 min with gentle shaking, absorbance at 550 nm was determined

[3] = system: MDA-MB-231 cells; test: Apoptosis protein array and Western blot (p53, p21, p27, claspin, BCL-2); conditions: for expression of the anti-apoptotic protein Bcl-2: 1 μM lenalidomide or 100 nM 1,25-D3 alone
Description: Cells were lysed in RIPA buffer containing 1% NP40, 0.5% sodium deoxycholate, 0.1% SDS and PBS and lysates containing 300 μg protein were probed with an R and D apoptosis protein array kit according to the manufacturers instructions (R&D catalogue number ARY009). Spots were visualised using the enhanced chemiluminescence Western blotting detection system (ECL, Amersham, N.J., USA). Densitometric analysis was performed using Adobe Photoshop CS2.
To determine the pathways and proteins involved in the increased apoptosis seen with the lenalidomide/1, 25-D3 combination treatment, whole proteins were extracted from cells taken from the different treatments and were used for probing with an apoptosis protein array, according to the manufacturer. FIG. 9 illustrates the effects. […] Cells were also treated with 0.1% DMSO as a control. Cells were lysed with RIPA buffer as described in the materials and methods, and 300 μg of protein from each of the samples was used for probing with the R& D apoptosis array according to the manufacturers instructions. Results are representative of 2 separate arrays performed. The protein array gives a semi quantitative analysis of changes in the key apoptosis and checkpoint pathway proteins. […] All these proteins are well known to be major pro-apoptotic or checkpoint regulatory proteins. […] All theses results were confirmed by Western blot (FIG. 10 (a)) and densitometry plots of the array and western blot bands/dots were carried out to quantitate the changed expression of these proteins (FIG. 10 (b)). Therefore, the increase in pro-apoptotic proteins coupled with a decrease in Bcl-2 may be responsible for the increased apoptosis seen with the combination treatment.
More particularly, FIG. 10 illustrates the effects of co-treatment lenalidomide/1, 25-D3 on p53 activation and p21, p27, claspin, and BCL-2 protein expression in MDA-MB-231 cells. […] Cells were also treated with 0.1% DMSO as a control. Whole proteins were extracted and probed for p53 (serine 15 and serine 392), p21, p27, claspin, and BCL-2, with b-actin as a house-keeping protein.

[4] = single agent: 1 μM lenalidomide or 100 nM 1,25 D3 alone, up to 6 days
[5] = 1 μM lenalidomide co-treatment with 100 nM 1,25-D3, up to 6 days

C=C1/C(=C\C=C2/CCC[C@]3(C)[C@@H]([C@H](C)CCCC(C)(C)O)CC[C@@H]23)C[C@@H](O)C[C@@H]1O [1,25-D3, 1α,25-dihydroxyvitamin D3]
PARP cleavage [1, 4]: no effect | PARP cleavage ([1]; single agent: 1 μM lenalidomide or 100 nM 1,25 D3 alone, up to 6 days, listed as vitamin D): no PARP cleavage | inhibition of viability ([2]; 100 nM 1,25-D3 alone, up to 6 days, FIG. 7A): 35% | sensitivity of cell viability to vitamin D agent treatment ([2]; 1,25 D3 0-100 nM, 7 days, FIG. 1): showed sensitivity | expression of the anti-apoptotic protein Bcl-2 ([3]; up to 6 days): does not affect

Nc1cccc2c1CN(C1CCC(=O)NC1=O)C2=O (stereo not drawn) [Lenalidomide, 1-oxo-2-(2,6-dioxopiperidin-3-yl)-4-aminoisoindoline]
PARP cleavage ([1]; 1 μM lenalidomide in combination with 100 nM 1,25 D3, up to 6 days): starts to be cleaved after 2 days of treatment | PARP cleavage ([1]; 1 μM lenalidomide in combination with 100 nM 1,25 D3, up to 6 days, listed as 1-oxo-2-(2,6-dioxopiperidin-3-yl)-4-aminoisoindoline): significant level of cleaved PARP | PARP cleavage [1, 4]: no effect | PARP cleavage ([1]; single agent: 1 μM lenalidomide or 100 nM 1,25 D3 alone, up to 6 days, listed as 1-oxo-2-(2,6-dioxopiperidin-3-yl)-4-aminoisoindoline): no PARP cleavage | effect on cell viability ([2]; single agent, up to 6 days, Thalidomide 0.01-100 μM, CC-4047 and lenalidomide 0.001-10 μM, FIG. 6A): do not Affect | BCL-2 expression [3, 5]: inhibits BCL-2 expression; also recorded: abolished by the combination | p21, p27 and claspin expression [3, 5]: induces activation | p53 activation (phosphorylation of serine 15 and serine 392) [3, 5]: induces p53 activation | p53 activation (phosphorylation of serine 15 and serine 392) ([3]; 1 μM lenalidomide only, up to 6 days): induces p53 activation | expression of the anti-apoptotic protein Bcl-2 ([3]; up to 6 days): does not affect | proapoptotic protein claspin ([3]; combination of lenalidomide and 1,25D3 versus either agent alone): upregulated by the combination, but not with either agent alone | proapoptotic proteins P21, P27 and P53S392 ([3]; lenalidomide in combination with vitamin D): upregulated | proapoptotic proteins P21, P27 and P53S392 ([3]; lenalidomide on its own): upregulated
